Data reported in US20170304388A1, “NEW INDICATION OF CARDIOVASCULAR DRUGS FOR PREPARATION OF CANCER INHIBITION PHARMACEUTICAL COMPOSITION” (LAUNX BIOMEDICAL CO., LTD., priority 2014, published 2017).
Counter-ions that a name gives are not always drawn.

Tested on: cancer cell lines
Assay: Growth inhibitory effects on the panel of cancer cell lines
Format: cell-based
Settings: drug 10 μM, 72 hours, WST-1
From the text: Subculture the different types of cancer cells.
For cell viability analysis, the cardiovascular drugs include peripheral vasodilator reaming enhancer, angiotensin converting agent inhibitor, hypotension and shock therapeutic agent, diuretic, antiarrhythmic agent, antiarralciton drug, antihypertensive agent, anticoagulant thrombolytic agent, cardiac tonic, intravenous (hemorrhoids) therapeutic agent, are used to test the inhibition effect of cancer cell.

Row | Structure (SMILES) | inhibition effect on different cancer cell lines (in words)
1 | C[C@@H]1C(=O)O[C@H]2C[C@@]34[C@H]5C[C@@H](C(C)(C)C)[C@]36[C@@H](OC(=O)[C@@H]6O)O[C@@]4(C(=O)O5)[C@]21O [Ginkgolide A] | significant inhibition effect
2 | NCCc1c[nH]cn1.O=P(O)(O)O [Histamine Phosphate] | significant inhibition effect
3 | NS(=O)(=O)c1cc2c(cc1Cl)NCNS2(=O)=O [Hydrochlorothiazide] | significant inhibition effect
4 | CCOC(=O)[C@H](CCc1ccccc1)N[C@@H](C)C(=O)N1C(=O)N(C)C[C@H]1C(=O)O [Imidapril (Tanatril) HCl, Imidapril HCl] | significant inhibition effect
5 | CCCCC1=NC2(CCCC2)C(=O)N1Cc1ccc(-c2ccccc2-c2nnn[nH]2)cc1 [Irbesartan (Avapro), Irbesartan] | significant inhibition effect
6 | C[N+](C)(C)C[C@H](O)CC(=O)[O-] [L-carnitine (Levocarnitine), L-carnitine] | significant inhibition effect
7 | CCOC(=O)C1=C(C)NC(C)=C(C(=O)OCC)C1c1ccccc1/C=C/C(=O)OC(C)(C)C [Lacidipine (Lacipil, Motens), Lacidipine] | significant inhibition effect
8 | Nc1cccc2c1CN(C1CCC(=O)NC1=O)C2=O (centres unmarked) [Lenalidomide] | significant inhibition effect
9 | CC(Oc1c(Cl)cccc1Cl)C1=NCCN1 (centres unmarked) [Lofexidine HCl] | significant inhibition effect
10 | COc1ccc(CN2CCN(C(c3ccc(F)cc3)c3ccc(F)cc3)CC2)c(OC)c1OC [Lomerizine HCl] | significant inhibition effect
11 | COc1ccc(OC)c(C(O)C(C)N)c1 (centres unmarked) [Methoxamine HCl] | significant inhibition effect
12 | CN1C(CCl)Nc2cc(Cl)c(S(N)(=O)=O)cc2S1(=O)=O (centres unmarked) [Methyclothiazide] | significant inhibition effect
13 | Cc1cc2c(cc1S(N)(=O)=O)S(=O)(=O)CCC2 [Meticrane] | significant inhibition effect
14 | Cc1ccccc1N1C(=O)c2cc(S(N)(=O)=O)c(Cl)cc2NC1C (centres unmarked) [Metolazone (Zaroxolyn), Metolazone] | significant inhibition effect
15 | CC[C@H](C)C(=O)O[C@H]1CCC=C2C=C[C@H](C)[C@H](CC[C@@H]3C[C@@H](O)CC(=O)O3)[C@H]21 [Mevastatin] | significant inhibition effect
16 | Cc1cccc(C)c1OCC(C)N (centres unmarked) [Mexiletine HCl] | significant inhibition effect
17 | O=C(O)[C@H](CC(=O)N1C[C@H]2CCCC[C@H]2C1)Cc1ccccc1 [Mitiglinide calcium] | significant inhibition effect
18 | O=C1c2c(O)ccc(O)c2C(=O)c2c(NCCNCCO)ccc(NCCNCCO)c21 [Mitoxantrone Hydrochloride] | significant inhibition effect
19 | N=C(N)c1ccc2cc(OC(=O)c3ccc(N=C(N)N)cc3)ccc2c1 [Nafamostat mesylate] | significant inhibition effect
20 | O=C(NCCO[N+](=O)[O-])c1cccnc1 [Nicorandil (Ikorel), Nicorandil] | significant inhibition effect
21 | CS(=O)(=O)Nc1ccc([N+](=O)[O-])cc1Oc1ccccc1 [Nimesulide] | significant inhibition effect

Row | Structure (SMILES) | inhibition effect on different cancer cell lines (in words)
22 | CCCc1nc(C(C)(C)O)c(C(=O)OCc2oc(=O)oc2C)n1Cc1ccc(-c2ccccc2-c2nnn[nH]2)cc1 [Olmesartan medoxomil (Benicar), Olmesartan medoxomil] | significant inhibition effect
23 | CCOC(=O)C1=C[C@@H](OC(CC)CC)[C@H](NC(C)=O)[C@@H](N)C1 [Oseltamivir phosphate (Tamiflu), Oseltamivir phosphate] | significant inhibition effect
24 | CCCCCCCCOc1ccccc1C(=O)Nc1ccc(C(=O)OCC[N+](C)(CC)CC)cc1 [Otilonium Bromide] | significant inhibition effect
25 | C=CCOc1ccccc1OCC(O)CNC(C)C (centres unmarked) [Oxprenolol HCl] | significant inhibition effect
26 | CCC(CC)[C@H](NC(C)=O)[C@@H]1[C@H](O)[C@@H](C(=O)O)C[C@H]1N=C(N)N.O.O.O [Peramivir Trihydrate] | significant inhibition effect
27 | Nc1ccc(/N=N/c2ccccc2)c(N)n1 [Phenazopyridine HCl] | significant inhibition effect
28 | O=C1c2ccccc2C(=O)C1c1ccccc1 [Phenindione (Rectadione), Phenindione] | significant inhibition effect
29 | Cc1ccc(N(CC2=NCCN2)c2cccc(O)c2)cc1 [Phentolamine mesilate] | significant inhibition effect
30 | CC(N/C(=N\C#N)Nc1ccncc1)C(C)(C)C (centres unmarked) [Pinacidil] | significant inhibition effect
31 | CC(C)NCC(O)COc1cccc2[nH]ccc12 (centres unmarked) [Pindolol] | significant inhibition effect
32 | C[C@]12CCC(=O)C=C1C=C[C@@H]1[C@@H]2CC[C@@]2(C)[C@H]1CC[C@@]2(O)CCC(=O)O [Potassium Canrenoate] | significant inhibition effect
33 | CC(=O)Oc1cc2c(s1)CCN(C(C(=O)C1CC1)c1ccccc1F)C2 (centres unmarked) [Prasugrel (Effient), Prasugrel] | significant inhibition effect
34 | CC(C)(Sc1cc(C(C)(C)C)c(O)c(C(C)(C)C)c1)Sc1cc(C(C)(C)C)c(O)c(C(C)(C)C)c1 [Probucol] | significant inhibition effect
35 | CC(C)NCC(O)COc1cccc2ccccc12 (centres unmarked) [Propranolol HCl] | significant inhibition effect
36 | CN(C)C(=O)Oc1ccc[n+](C)c1 [Pyridostigmine Bromide (Mestinon), Pyridostigmine Bromide] | significant inhibition effect
37 | C=C[C@H]1C[N@@]2CC[C@H]1C[C@H]2[C@H](O)c1ccnc2ccc(OC)cc12 [Quinine hydrochloride dihydrate] | significant inhibition effect
38 | COc1ccccc1OCC(O)CN1CCN(CC(=O)Nc2c(C)cccc2C)CC1 (centres unmarked) [Ranolazine dihydrochloride] | significant inhibition effect
39 | COC(=O)[C@H]1[C@H]2C[C@@H]3c4[nH]c5cc(OC)ccc5c4CCN3C[C@H]2C[C@@H](OC(=O)c2cc(OC)c(OC)c(OC)c2)[C@@H]1OC [Reserpine] | significant inhibition effect
40 | C[C@H](Cc1cc2c(c(C(N)=O)c1)N(CCCO)CC2)NCCOc1ccccc1OCC(F)(F)F [Silodosin (Rapaflo), Silodosin] | significant inhibition effect
41 | O=C(O[C@H]1CN2CCC1CC2)N1CCc2ccccc2[C@@H]1c1ccccc1 [Solifenacin succinate] | significant inhibition effect
